Data reported in PubChem BioAssay (NCI).
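In this assay, cells in 96-well plates receive the compound at five concentrations for 48 hours. Endpoints are linearly interpolated between the surrounding concentrations. GI50 = concentration required for 50% inhibition of growth. At the TGI there is no net growth.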

Legend:
Test in all cases: NCI anticancer screen, dose series, 48 h
[1] = test system: HCT-15 colon
[2] = test system: HCT-116 colon
[3] = test system: MCF7 breast
[4] = test system: OVCAR-4 ovarian
[5] = test system: OVCAR-5 ovarian
[6] = test system: SF-295 CNS
[7] = test system: OVCAR-8 ovarian
[8] = test system: NCI-H226 lung
[9] = test system: SK-MEL-5 melanoma
[10] = test system: 786-0 renal

SMILES | GI50 [1] [µM] | TGI [1] [µM] | GI50 [2] [µM] | TGI [2] [µM] | GI50 [3] [µM] | TGI [3] [µM] | GI50 [4] [µM] | TGI [4] [µM] | GI50 [5] [µM] | TGI [5] [µM] | GI50 [6] [µM] | TGI [6] [µM] | GI50 [7] [µM] | TGI [7] [µM] | GI50 [8] [µM] | TGI [8] [µM] | GI50 [9] [µM] | TGI [9] [µM] | GI50 [10] [µM] | TGI [10] [µM]
c1ccc2[nH]c(-c3ccc(-c4nccc5c4[nH]c4ccccc45)cc3)nc2c1 | 2.22 | 5.61 | 2.83 | 10.4 | 3.56 | 17.2 | 2.27 | 7.75 | 2.43 | 6.47 | 1.92 | 4 | 3.3 | 13.5 | 2.27 | 5.56 | 3.69 | 14.3 | 2.24 | 6.3
O=C1Nc2ccccc2/C1=C/C(=O)c1coc2c1C(=O)c1ccccc1C2=O | > 100 | > 100 | > 100 | > 100 | 74.7 | > 100 | > 100 | > 100 | > 100 | > 100 | > 100 | > 100 | > 100 | > 100 | > 100 | > 100 | 30.4 | > 100 | > 100 | > 100
COc1ccc(C(=O)c2cc(OC)c(OC)c(OC)c2)cc1OC(=O)CCl | < 0.0132 | > 100 | 0.0205 | > 100 | 0.0249 | > 100 | 0.115 | > 100 | 3.61 | > 100 | 0.0456 | > 100 | 0.052 | > 100 | 11.3 | > 100 | 0.0338 | 0.434 | 0.554 | > 100
COc1cc(/C=C/C(=O)c2cccc(Nc3nc(Nc4ccccc4)nc(Nc4ccccc4)n3)c2)cc(OC)c1OC | 4.57 | > 100 | 2.68 | > 66.6 | 0.588 | > 54.1 | 33.9 | > 100 | 38.4 | > 100 | 2.58 | – | 0.988 | > 100 | 17.2 | > 81 | 2.7 | 23.8 | 7.66 | 43.2
Cc1c(C(N)=O)sc2c1C(=O)N(Cc1ccccc1)C1=NN=C(c3ccc(Cl)cc3)CN12 | 0.688 | 17.9 | 3.44 | 14.5 | 3.59 | 14.9 | 2.81 | 15.8 | 8.47 | 21.1 | 2.31 | 14.7 | 2.97 | 15.2 | 2.49 | 11.8 | 1.84 | 4.76 | 2.65 | 6.92
O=[N+]([O-])O.[Cu+2].[NH-]CC[NH-].[NH-]CC[NH-] | > 10 | > 10 | > 10 | > 10 | > 10 | > 10 | > 10 | > 10 | > 10 | > 10 | > 10 | > 10 | > 10 | > 10 | > 10 | > 10 | > 10 | > 10 | > 10 | > 10
COc1ccc(/C(COc2ccc3c(=O)cc(-c4ccccc4)oc3c2)=N\O)cc1 | 22.8 | > 50 | 21.2 | > 50 | 9.68 | > 32.2 | 21.5 | > 41.5 | 0.402 | > 10.2 | 12.5 | 42.8 | 21.4 | > 35.5 | 17.7 | > 50 | 9.61 | > 29.4 | 17.2 | > 50
C=C(C)C(=O)Nc1ccc(NC(C)C)cc1 | > 100 | > 100 | > 100 | > 100 | > 100 | > 100 | > 100 | > 100 | > 100 | > 100 | > 100 | > 100 | > 100 | > 100 | > 100 | > 100 | > 100 | > 100 | > 100 | > 100
C=C1CCC2C3(C)COC(c4ccc(N(C)C)cc4)OC3CCC2(C)C1C/C=C1/C(=O)OCC1O (configuration not stated) | 1.91 | 6 | 1.62 | 3.05 | 2.32 | 13 | 2.5 | 8.98 | 7.7 | 20 | 6 | 20 | 3.78 | 18.9 | 6.09 | 18.2 | 7.2 | 20.3 | 10.5 | 25.3
CC/C=C1/C(=O)C=C[C@@H]1C/C=C\CCCC(=O)OC | 1.94 | 5.31 | 0.447 | 2.4 | 1.21 | 11 | 5.24 | 18 | 4.73 | 15.1 | 2.6 | 6.76 | 3.72 | 14.9 | 13.7 | 31.2 | 1.77 | 3.2 | 2.56 | 6.59
COc1ccc(-c2cn(-c3cc(OC)c(OC)c(OC)c3)c(SCc3ccccc3)n2)cc1OC | > 100 | > 100 | > 100 | > 100 | > 100 | > 100 | > 100 | > 100 | > 100 | > 100 | > 100 | > 100 | > 100 | > 100 | > 100 | > 100 | 68.2 | > 100 | > 100 | > 100
COc1cc2c(cc1C)NC(=O)/C2=C/c1ccccn1 | – | – | 2.53 | > 100 | 3.27 | > 100 | 8.02 | > 100 | 3.46 | 43.9 | 3.46 | 13.3 | 3.14 | > 100 | 1.54 | 4.86 | 4.49 | 27.3 | 2.48 | 8.38
